Assay results taken from patent US4728649A, “3-oxo-piperazin-1-yl-ergolines exhibiting antidopaminergic activity” (Farmitalia Carlo Erba, priority 1985, dated 1988).

Assays:
[1] = test system: central apomorphine-induced climbing; test: Antagonism to central apomorphine-induced climbing (stereotypes) in mice; assay type: in vivo; details: Mus musculus, po; male mice; 60 minutes before 1 mg/kg s.c. apomorphine HCl; evaluated 10 minutes after apomorphine
Text: (§1) Profiles of the central sedative pharmacological activity were obtained by Irwin's observational assessment of mouse behavior (Irwin, S.--Psychopharmacologia, Berl., 13, 222, 1968), which also gives an indication of the orientative acute toxicity after 7 days observation, and by antagonism to the central apomorphine-induced stereotypes (climbing) in mice.
For the antagonism to central apomorphine-induced climbing (Protais, P. et al.--Psychopharmacology, 50, 1, 1976), the compounds were orally administered to male mice, in a dose range between 0.25 and 10 mg/kg, 60 minutes before the subcutaneous injection of 1 mg/kg of apomorphine HCl. The antagonism to apormorphine-induced climbing behavior was evaluated 10 minutes after apomorphine administration.

[2] = Orientative acute toxicity (Irwin's observational assessment of mouse behavior, 7 days observation); details: in vivo, po, after 7 days observation
Text: as §1

In the case of CN1C[C@H](CN2CC(=O)NC(=O)C2)C=C2c3cccc4[nH]cc(c34)C[C@H]21 [Example 5, 6-Methyl-9,10-didehydro-8β-(3,5-dioxo-piperazin-1-ylmethyl)-ergoline], the ED50 [1] is reported as 0.5 mg/kg and the LD50 at 168 h [2] is reported as 200 mg/kg.

Compound CN1C(=O)CN(C[C@@H]2C[C@@H]3c4cccc5[nH]cc(c45)C[C@H]3N(C)C2)CC1=O [Example 3, 6-Methyl-8β-(3,5-dioxo-4-methyl-piperazin-1-ylmethyl)-ergoline] has an ED50 [1] of 2.2 mg/kg and an LD50 at 168 h [2] of 300 mg/kg.

CN1C[C@H](CN2CC(=O)NC(=O)C2)C[C@@H]2c3cccc4[nH]cc(c34)C[C@H]21 [Example 1, 6-Methyl-8β-(3,5-dioxo-piperazin-1-ylmethyl)-ergoline] showed an ED50 [1] of 4.4 mg/kg and an LD50 at 168 h [2] of 600 mg/kg.

Work on CN1C[C@H](CN2CC(=O)NC(=O)C2)C[C@@H]2c3cccc4c3c(cn4C)C[C@H]21 [Example 2, 1,6-Dimethyl-8β-(3,5-dioxo-piperazin-1-ylmethyl)-ergoline] yielded an ED50 [1] of 0.9 mg/kg and an LD50 at 168 h [2] of 300 mg/kg.
